Activity calls are given as the source filed them.
What was measured:
H4 = assay: Luminescence Cell-Based Dose Response HTS to Identify Activators of 5'UTR Stem-Loop Driven Prion Protein mRNA Translation in H4 Neuroglioblastoma Cells. [Related pubchem assays: 1829 (Project Summary), 1814 (Primary HTS)]; format: functional; conditions: Homo sapiens
[1] = Luminescence Cell-Based Dose Response HTS to Identify Activators of Luciferase Translation or Activity in H4 […] Cells. [Related pubchem assays: 1829 (Project Summary), 1814 (Primary HTS)]; format: functional
[2] = Luminescence Cell-Based Dose Confirmation HTS to Identify Activators of 5'UTR Stem-Loop Driven Alpha-Synuclein mRNA Translation in H4 Neuroglioblastoma Cells. [Related pubchem assays: 1829 (Project Summary), 1814 (Primary HTS)]; format: functional
Vero = assay: viability of Vero cells under compound – cytotoxicity control for flavivirus capping enzyme inhibitors (AID 588742); format: functional; conditions: Chlorocebus sabaeus
[3] = molecular target: FAD-linked sulfhydryl oxidase ALR (Homo sapiens, UniProt P55789); assay: ALR-catalysed DTT oxidation blockers – biochemical, H2O2 detection, luminescence, cherry-pick, dose response (AID 493248)
FAD-linked sulfhydryl oxidase ALR, sequence (P55789 whole entry): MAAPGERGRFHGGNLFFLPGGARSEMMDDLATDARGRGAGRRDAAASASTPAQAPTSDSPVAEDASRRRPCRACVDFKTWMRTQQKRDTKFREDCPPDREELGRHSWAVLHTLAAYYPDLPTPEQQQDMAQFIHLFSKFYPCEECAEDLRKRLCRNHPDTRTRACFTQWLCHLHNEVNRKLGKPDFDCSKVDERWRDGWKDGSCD

[4] = molecular target: T1, Sentrin-specific protease 7 (Homo sapiens, UniProt Q9BQF6); format: functional;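 also: Luminescence-based dose-response confirmation of ultra-high-throughput screening hits, measuring inhibition of SENP7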
T1 sequence (Q9BQF6 whole entry): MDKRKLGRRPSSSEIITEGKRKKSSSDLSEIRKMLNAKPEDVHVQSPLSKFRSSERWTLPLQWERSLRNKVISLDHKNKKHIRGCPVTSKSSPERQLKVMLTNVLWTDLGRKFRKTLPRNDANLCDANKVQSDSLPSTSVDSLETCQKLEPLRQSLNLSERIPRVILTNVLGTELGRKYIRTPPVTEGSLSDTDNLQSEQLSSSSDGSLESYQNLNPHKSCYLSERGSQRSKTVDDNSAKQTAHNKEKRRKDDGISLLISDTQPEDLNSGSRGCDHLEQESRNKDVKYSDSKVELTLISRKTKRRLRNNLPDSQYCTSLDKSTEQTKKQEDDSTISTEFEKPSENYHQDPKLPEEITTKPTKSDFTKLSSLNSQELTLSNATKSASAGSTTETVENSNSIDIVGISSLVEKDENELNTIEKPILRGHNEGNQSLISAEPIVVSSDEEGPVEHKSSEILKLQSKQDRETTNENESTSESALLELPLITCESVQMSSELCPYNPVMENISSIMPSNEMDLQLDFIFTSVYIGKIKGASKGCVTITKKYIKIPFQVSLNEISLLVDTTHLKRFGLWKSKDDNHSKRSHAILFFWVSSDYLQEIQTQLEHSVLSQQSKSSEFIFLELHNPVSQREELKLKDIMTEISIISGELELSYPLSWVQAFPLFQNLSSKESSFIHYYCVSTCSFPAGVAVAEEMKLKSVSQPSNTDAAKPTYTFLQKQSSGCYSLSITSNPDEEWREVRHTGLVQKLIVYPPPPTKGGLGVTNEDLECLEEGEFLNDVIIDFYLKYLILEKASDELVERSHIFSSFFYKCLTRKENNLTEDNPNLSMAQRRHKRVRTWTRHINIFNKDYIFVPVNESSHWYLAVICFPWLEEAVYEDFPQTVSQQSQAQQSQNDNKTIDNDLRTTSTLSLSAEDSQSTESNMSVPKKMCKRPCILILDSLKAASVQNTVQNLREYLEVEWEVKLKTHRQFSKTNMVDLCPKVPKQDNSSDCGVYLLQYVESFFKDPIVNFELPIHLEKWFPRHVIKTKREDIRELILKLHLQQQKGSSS

[5] = molecular target: T2, Sentrin-specific protease 8 (Homo sapiens, UniProt Q96LD8); format: functional;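 also: luminescence read-out of SENP8 inhibition, dose-response confirmation following an ultra-high-throughput screen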
T2 sequence (Q96LD8 whole entry): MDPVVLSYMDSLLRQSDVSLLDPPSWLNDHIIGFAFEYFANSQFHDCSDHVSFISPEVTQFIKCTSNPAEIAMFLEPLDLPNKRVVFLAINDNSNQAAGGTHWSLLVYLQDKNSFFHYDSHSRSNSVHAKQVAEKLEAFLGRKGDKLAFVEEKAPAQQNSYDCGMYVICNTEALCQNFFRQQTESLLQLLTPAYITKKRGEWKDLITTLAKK

[6] = molecular target: T3, Sentrin-specific protease 6 (Homo sapiens, UniProt Q9GZR1); format: functional
T3 sequence (Q9GZR1 whole entry): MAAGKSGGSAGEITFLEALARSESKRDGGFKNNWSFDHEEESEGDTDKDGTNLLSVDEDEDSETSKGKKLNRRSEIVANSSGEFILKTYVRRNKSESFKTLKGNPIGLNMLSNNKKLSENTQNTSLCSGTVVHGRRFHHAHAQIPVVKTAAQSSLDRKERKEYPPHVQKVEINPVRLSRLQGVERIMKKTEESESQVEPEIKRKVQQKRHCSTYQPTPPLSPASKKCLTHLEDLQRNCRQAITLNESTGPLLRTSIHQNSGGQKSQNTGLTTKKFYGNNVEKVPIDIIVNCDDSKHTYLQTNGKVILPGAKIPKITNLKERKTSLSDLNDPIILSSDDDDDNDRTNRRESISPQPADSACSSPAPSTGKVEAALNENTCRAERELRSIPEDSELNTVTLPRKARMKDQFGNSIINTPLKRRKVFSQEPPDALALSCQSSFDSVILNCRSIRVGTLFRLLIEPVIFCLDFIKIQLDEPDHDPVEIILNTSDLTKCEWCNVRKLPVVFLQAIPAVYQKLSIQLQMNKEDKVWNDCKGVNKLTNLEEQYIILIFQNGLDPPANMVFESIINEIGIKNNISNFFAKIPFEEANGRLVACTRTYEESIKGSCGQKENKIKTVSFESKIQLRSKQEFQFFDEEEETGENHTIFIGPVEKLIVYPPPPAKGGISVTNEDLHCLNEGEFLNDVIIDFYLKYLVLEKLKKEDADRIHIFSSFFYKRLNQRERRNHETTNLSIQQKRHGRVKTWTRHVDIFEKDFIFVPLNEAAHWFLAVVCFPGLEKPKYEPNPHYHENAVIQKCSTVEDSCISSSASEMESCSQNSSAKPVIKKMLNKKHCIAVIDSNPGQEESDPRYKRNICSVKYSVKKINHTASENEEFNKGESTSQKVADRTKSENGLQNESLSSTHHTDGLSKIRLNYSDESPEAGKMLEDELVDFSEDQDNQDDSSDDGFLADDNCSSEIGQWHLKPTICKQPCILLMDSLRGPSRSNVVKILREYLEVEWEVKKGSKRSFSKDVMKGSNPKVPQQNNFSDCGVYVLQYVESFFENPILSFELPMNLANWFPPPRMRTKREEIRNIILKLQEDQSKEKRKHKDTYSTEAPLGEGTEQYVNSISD

Caspase-3 [7] = molecular target: T4, Caspase-3 (Homo sapiens, UniProt P42574); format: functional
T4 sequence (P42574 whole entry): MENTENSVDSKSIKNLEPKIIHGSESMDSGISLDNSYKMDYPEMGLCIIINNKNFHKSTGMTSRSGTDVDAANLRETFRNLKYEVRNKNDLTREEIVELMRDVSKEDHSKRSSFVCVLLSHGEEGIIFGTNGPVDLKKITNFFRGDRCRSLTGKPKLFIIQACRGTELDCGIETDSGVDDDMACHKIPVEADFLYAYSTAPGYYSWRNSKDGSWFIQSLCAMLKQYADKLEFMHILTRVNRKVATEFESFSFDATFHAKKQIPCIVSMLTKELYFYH

[8] = molecular target: Melanin-concentrating hormone receptor 1 (Homo sapiens, UniProt Q99705); assay: Late-stage fluorescence-based counterscreen for antagonists of the G-protein coupled receptor 7 (GPR7): cell-based dose response assay to identify antagonists of the melanin-concentrating hormone receptor 1 (MCHR1) Set 6.; format: functional
Melanin-concentrating hormone receptor 1, sequence (Q99705 whole entry): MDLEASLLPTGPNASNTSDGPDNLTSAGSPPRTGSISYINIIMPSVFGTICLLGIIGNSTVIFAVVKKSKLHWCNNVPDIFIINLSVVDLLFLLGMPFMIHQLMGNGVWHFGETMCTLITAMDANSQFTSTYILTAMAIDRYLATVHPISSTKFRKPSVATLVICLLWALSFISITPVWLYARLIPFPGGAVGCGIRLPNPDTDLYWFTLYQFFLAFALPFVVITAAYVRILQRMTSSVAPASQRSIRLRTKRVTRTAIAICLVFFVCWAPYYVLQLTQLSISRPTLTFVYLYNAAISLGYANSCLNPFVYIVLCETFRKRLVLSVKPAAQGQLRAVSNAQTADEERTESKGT

[9] = molecular target: T5, Neuropeptides B/W receptor type 1 (Homo sapiens, UniProt P48145); assay: human NPBW1 receptor blockade, IC50 – cell-based, fluorescence, dose response, set 6, late-stage follow-up (AID 588583); format: functional
T5 sequence (P48145 whole entry): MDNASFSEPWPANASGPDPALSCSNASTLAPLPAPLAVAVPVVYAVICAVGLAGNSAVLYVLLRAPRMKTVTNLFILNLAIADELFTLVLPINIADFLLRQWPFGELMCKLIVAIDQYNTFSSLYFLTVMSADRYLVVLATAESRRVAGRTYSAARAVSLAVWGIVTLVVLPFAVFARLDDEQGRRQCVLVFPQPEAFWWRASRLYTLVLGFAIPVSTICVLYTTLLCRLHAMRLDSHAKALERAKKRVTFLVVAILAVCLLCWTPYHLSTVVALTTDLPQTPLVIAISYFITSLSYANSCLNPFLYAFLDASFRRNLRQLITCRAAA

[10] = molecular target: T3, Sentrin-specific protease 6; assay: SAR Analysis of small molecule inhibitors of Sentrin-specific protease 6 (SENP6) using a Luminescent assay. [Related pubchem assays (depositor defined):AID2582, AID2599]; format: functional
[11] = molecular target: T2, Sentrin-specific protease 8; assay: inhibition of human SENP8 cleavage activity – biochemical, luminescence, SAR follow-up (AID 504501); format: functional
Caspase-3 [12] = molecular target: T4, Caspase-3; assay: SAR Analysis of small molecule inhibitors of Sentrin-specific proteases (SENPs) using a Caspase-3 Selectivity assay. [Related pubchem assays (depositor defined):AID2540, AID2599, AID434973, AID489001]; format: functional
[13] = molecular target: T1, Sentrin-specific protease 7; assay: inhibition of human SENP7 cleavage activity – biochemical, luminescence, SAR follow-up (AID 504497); format: functional
Aurora kinase A = molecular target: T6, Aurora kinase A (Homo sapiens, UniProt O14965); format: functional;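 also: value from the Navigating the Kinome kinase panel profiling, panel entry STK6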
T6 sequence (O14965 whole entry): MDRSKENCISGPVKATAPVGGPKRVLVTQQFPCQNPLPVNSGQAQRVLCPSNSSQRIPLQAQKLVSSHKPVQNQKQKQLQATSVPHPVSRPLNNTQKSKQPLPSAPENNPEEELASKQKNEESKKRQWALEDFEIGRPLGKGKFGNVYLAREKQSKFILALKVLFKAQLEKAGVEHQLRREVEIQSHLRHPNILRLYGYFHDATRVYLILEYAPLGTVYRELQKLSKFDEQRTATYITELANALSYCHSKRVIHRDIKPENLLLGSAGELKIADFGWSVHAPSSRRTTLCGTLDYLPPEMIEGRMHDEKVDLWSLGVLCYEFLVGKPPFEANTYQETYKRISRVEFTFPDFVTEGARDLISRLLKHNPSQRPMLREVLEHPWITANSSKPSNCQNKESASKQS

[14] = molecular target: Vascular endothelial growth factor receptor 2 (Homo sapiens, UniProt P35968); format: functional
Vascular endothelial growth factor receptor 2, sequence (P35968 whole entry): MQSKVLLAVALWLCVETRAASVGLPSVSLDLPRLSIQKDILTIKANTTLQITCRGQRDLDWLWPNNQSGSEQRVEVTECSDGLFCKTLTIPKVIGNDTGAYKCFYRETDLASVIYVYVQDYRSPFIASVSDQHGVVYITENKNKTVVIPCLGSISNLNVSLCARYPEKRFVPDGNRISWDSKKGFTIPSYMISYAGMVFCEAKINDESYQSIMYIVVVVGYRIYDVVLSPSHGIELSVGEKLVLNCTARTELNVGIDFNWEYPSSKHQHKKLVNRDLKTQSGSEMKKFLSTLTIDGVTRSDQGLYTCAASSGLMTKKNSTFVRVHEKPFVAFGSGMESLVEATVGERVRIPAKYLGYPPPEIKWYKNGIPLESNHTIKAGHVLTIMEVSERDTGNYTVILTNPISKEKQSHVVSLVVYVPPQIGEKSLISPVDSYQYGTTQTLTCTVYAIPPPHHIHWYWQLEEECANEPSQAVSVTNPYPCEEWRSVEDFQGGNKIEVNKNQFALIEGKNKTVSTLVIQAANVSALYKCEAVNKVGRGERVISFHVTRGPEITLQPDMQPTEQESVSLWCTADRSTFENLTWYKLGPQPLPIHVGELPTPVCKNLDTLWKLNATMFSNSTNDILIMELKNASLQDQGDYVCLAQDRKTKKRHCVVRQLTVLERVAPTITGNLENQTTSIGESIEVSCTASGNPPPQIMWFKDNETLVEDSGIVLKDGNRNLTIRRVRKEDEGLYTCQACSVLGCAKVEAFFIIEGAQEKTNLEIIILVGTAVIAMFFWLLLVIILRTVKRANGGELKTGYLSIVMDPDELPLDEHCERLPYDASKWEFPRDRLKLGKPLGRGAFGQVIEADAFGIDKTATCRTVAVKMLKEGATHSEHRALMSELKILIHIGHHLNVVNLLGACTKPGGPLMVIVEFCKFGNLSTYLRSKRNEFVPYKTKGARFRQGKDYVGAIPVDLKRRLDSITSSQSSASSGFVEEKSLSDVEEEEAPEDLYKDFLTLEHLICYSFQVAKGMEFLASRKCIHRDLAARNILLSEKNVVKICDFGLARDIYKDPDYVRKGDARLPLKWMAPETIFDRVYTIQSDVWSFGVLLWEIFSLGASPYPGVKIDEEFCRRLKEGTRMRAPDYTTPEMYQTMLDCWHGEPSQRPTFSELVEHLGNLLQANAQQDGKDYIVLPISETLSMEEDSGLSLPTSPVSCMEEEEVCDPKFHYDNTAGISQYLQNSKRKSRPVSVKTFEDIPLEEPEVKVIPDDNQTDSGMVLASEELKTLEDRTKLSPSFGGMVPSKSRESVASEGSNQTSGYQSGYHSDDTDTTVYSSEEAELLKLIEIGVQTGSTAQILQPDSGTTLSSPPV

Aurora kinase B = Aurora kinase B (Homo sapiens, UniProt Q96GD4); format: functional
Aurora kinase B, sequence (Q96GD4 whole entry): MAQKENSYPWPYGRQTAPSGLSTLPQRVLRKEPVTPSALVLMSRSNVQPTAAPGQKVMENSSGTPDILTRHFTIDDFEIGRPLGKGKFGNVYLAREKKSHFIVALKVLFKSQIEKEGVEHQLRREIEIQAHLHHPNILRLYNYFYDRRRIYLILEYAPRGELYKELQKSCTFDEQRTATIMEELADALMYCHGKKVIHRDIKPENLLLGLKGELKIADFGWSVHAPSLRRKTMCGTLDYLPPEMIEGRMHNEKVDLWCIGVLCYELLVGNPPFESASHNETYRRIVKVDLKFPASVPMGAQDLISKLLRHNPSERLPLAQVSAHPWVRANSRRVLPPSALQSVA

[15] = molecular target: T7, Mannose-6-phosphate isomerase (Homo sapiens, UniProt P34949); assay: MPI inhibition at elevated mannose 6-phosphate – biochemical, fluorescence intensity, high mannose 6-phosphate, primary screen (AID 1220)
T7 sequence (P34949 whole entry): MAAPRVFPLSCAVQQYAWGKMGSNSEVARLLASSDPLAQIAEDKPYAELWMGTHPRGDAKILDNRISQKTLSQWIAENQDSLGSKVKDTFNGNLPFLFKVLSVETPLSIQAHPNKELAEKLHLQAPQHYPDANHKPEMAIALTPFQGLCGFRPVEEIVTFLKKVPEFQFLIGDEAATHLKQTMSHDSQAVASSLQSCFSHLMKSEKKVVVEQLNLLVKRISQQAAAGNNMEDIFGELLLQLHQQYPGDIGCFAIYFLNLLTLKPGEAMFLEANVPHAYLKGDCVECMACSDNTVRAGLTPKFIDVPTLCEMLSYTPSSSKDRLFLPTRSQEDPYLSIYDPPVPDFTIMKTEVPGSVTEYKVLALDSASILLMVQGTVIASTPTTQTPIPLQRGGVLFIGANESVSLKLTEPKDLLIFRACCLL

[16] = molecular target: Apoptotic protease-activating factor 1 (Homo sapiens, UniProt O14727); format: functional
Apoptotic protease-activating factor 1, sequence (O14727 whole entry): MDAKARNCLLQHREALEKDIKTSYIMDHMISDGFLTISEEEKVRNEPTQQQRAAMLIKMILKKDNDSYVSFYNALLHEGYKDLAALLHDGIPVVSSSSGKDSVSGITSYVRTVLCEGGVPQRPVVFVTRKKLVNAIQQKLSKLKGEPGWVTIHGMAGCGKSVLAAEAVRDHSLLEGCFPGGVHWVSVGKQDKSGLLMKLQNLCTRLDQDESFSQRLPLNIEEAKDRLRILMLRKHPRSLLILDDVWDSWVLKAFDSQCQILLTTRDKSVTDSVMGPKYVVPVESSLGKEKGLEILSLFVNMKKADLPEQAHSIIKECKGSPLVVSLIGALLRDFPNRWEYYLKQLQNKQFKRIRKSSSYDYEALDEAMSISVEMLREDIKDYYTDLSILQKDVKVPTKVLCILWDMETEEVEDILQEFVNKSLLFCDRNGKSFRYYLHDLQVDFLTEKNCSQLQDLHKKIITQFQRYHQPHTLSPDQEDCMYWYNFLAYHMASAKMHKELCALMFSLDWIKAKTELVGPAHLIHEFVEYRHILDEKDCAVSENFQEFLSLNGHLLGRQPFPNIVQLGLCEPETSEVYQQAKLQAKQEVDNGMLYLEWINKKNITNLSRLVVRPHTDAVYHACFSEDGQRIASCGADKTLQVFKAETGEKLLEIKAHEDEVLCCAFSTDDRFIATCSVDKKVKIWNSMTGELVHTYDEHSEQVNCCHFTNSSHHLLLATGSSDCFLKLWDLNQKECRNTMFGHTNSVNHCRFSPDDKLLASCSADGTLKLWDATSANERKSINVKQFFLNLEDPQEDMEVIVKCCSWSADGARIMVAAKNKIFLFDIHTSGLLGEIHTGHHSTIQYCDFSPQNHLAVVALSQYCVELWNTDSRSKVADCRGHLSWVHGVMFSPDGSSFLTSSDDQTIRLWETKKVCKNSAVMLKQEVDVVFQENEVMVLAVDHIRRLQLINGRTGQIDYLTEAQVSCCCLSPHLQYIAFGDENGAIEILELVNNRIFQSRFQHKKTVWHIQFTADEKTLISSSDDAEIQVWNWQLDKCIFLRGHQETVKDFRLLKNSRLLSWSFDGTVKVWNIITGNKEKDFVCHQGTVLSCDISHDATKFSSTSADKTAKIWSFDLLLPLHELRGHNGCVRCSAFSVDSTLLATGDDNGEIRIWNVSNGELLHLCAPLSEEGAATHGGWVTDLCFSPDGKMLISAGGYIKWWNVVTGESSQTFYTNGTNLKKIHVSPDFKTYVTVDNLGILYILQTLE

[17] = molecular target: Cyclin-dependent kinase 19 (Homo sapiens, UniProt Q9BWU1); assay: Navigating the Kinome. Panel member name: CDC2L6; format: functional
Cyclin-dependent kinase 19, sequence (Q9BWU1 whole entry): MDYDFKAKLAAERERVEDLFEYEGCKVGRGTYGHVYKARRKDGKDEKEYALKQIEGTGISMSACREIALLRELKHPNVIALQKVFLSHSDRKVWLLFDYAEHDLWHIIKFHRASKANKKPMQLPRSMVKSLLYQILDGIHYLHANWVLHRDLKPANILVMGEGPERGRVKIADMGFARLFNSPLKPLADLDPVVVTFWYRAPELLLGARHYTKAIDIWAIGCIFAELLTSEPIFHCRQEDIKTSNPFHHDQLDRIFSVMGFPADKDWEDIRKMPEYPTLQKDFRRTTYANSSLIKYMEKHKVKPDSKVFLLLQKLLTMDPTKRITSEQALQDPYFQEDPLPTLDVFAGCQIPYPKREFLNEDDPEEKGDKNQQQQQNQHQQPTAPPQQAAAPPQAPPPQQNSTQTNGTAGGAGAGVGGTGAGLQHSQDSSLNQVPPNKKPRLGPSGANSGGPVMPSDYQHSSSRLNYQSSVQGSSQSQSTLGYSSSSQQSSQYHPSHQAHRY

Cytochrome P450 2C9 = Cytochrome P450 2C9 (Homo sapiens, UniProt P11712)
Cytochrome P450 2C9, sequence (P11712 whole entry): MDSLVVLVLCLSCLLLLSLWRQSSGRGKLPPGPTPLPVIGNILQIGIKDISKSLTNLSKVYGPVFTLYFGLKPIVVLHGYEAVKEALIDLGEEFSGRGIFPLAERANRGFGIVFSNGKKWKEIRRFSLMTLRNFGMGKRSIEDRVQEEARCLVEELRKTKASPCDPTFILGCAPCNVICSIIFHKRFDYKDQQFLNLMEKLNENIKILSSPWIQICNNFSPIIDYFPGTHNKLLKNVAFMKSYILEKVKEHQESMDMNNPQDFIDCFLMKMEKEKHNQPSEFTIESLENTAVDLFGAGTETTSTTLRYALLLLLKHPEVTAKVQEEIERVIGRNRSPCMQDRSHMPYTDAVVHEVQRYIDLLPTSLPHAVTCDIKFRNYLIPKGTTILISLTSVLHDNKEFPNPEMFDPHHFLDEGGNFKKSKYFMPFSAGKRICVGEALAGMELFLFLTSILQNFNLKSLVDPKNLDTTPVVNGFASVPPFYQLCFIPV

Cytochrome P450 2D6 = Cytochrome P450 2D6 (Homo sapiens, UniProt P10635);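 also: CYP2D6 member of a cytochrome P450 panel assay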
Cytochrome P450 2D6, sequence (P10635 whole entry): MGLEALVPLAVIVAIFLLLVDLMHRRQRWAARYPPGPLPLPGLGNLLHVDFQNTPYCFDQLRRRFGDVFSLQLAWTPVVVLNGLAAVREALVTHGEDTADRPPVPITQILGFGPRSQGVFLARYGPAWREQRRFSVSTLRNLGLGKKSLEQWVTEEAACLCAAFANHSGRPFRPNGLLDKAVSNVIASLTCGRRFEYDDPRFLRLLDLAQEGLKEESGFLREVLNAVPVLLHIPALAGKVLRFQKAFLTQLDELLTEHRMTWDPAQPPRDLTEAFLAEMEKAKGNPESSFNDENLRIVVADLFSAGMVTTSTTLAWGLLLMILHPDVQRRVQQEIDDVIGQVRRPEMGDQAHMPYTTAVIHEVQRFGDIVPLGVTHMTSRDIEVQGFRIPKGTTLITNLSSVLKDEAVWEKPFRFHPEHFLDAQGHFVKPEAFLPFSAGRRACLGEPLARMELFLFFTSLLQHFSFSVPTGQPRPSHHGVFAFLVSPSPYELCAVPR

SMILES: O=C1c2sc3nc4n(c(=O)c3c2CCC1Br)CCCCC4 (stereo unspecified)
- EC50 (H4): 7.07 µM (active)
- EC50 [1]: 8.79 µM (active)
- EC50 [2]: 5.38 µM (active)
- CC50 (Vero): 24.2 µM (active)
- AC50 [3]: 1.7 µM (active)

SMILES: Cc1ccc(NC(=O)CCc2c(C)nn(-c3ccc(N4CCCCC4)nn3)c2C)cc1F
- IC50 [4]: 7.86 µM (active)
- IC50 [5]: 29.4 µM (active)
- IC50 [6]: 24.4 µM (active)
- IC50 (Caspase-3 [7]): 21.6 µM (active)

SMILES: N#CC(c1nc2ccccc2s1)c1c(Cl)cnn(Cc2cccc3ccccc23)c1=O (stereo unspecified)
- IC50 [8]: 0.186 µM (active)
- IC50 [9]: 0.186 µM (active)

SMILES: CN(C)c1cc(NN=Cc2ccco2)nc(N(C)C)n1
- IC50 [10]: 17.5 µM (active)
- IC50 [11]: 75.6 µM (active)
- IC50 (Caspase-3 [12]): > 99 µM (inactive)
- IC50 [13]: 35 µM (active)

SMILES: O=C(/C=C/c1ccc(OC2CSC2)cc1)c1ccccc1
- IC50 [10]: 7.59 µM (active)
- IC50 [11]: 8.36 µM (active)
- IC50 (Caspase-3 [12]): 23.3 µM (active)
- IC50 [13]: 5.23 µM (active)

SMILES: COc1cc(Nc2ncc(C(F)(F)F)c(N)n2)cc(OC)c1OC
- Ki (Aurora kinase A): 0.2 µM (active)
- Ki [14]: 3.98 µM (active)
- Ki (Aurora kinase B): 0.0398 µM (active)

SMILES: O=C1OC(Nc2ccc3ncccc3c2)c2ccccc21 (stereo unspecified)
- IC50 [15]: > 50 µM (not active)
- IC50 [16]: 32.9 µM (active)

SMILES: Cc1ccc(NC(=O)Nc2ccc(-c3c(C(C)C)sc4ncnc(N)c34)cc2)cc1
- Ki (Aurora kinase A): 0.0794 µM (active)
- Ki [17]: > 100 µM (inactive)

SMILES: NC(=O)c1cccc2[nH]c(-c3ccc(N4CCN(Cc5ccccc5)CC4)nc3)nc12
- Ki (Aurora kinase A): 0.501 µM (active)
- Ki [14]: 2 µM (active)
- Ki (Aurora kinase B): 0.02 µM (active)

SMILES: Cc1ccc(-c2nn3c(C)nnc3c3ccccc23)cc1S(=O)(=O)NCc1ccccc1
- AC50 (Cytochrome P450 2C9): 1.26 µM (inconclusive)
- AC50 (Cytochrome P450 2D6): 15.8 µM (inconclusive)
- IC50 [16]: 9.2 µM (active)

SMILES: Nc1ccc(-c2nc3cc([N+](=O)[O-])ccc3[nH]2)cc1
- IC50 [4]: 8.59 µM (active)
- IC50 [5]: 23.8 µM (active)
- IC50 [6]: 28.3 µM (active)
- IC50 (Caspase-3 [7]): 17.2 µM (active)
